Measurements as given in PMC6025191, “Heteronemin, a Marine Sesterterpenoid-Type Metabolite, Induces Apoptosis in Prostate LNcap Cells via Oxidative and ER Stress Combined with the Inhibition of Topoisomerase II and Hsp90” (Marine Drugs, 2018).

Molecular target: T1, topoisomerase IIα (Homo sapiens, UniProt P11388)
T1 construct: gene TOP2A
Assay: cell-free DNA cleavage assay with pHOT1 plasmid ([…], induction of linear DNA)
Type: biochemical

T1 sequence (P11388 whole entry): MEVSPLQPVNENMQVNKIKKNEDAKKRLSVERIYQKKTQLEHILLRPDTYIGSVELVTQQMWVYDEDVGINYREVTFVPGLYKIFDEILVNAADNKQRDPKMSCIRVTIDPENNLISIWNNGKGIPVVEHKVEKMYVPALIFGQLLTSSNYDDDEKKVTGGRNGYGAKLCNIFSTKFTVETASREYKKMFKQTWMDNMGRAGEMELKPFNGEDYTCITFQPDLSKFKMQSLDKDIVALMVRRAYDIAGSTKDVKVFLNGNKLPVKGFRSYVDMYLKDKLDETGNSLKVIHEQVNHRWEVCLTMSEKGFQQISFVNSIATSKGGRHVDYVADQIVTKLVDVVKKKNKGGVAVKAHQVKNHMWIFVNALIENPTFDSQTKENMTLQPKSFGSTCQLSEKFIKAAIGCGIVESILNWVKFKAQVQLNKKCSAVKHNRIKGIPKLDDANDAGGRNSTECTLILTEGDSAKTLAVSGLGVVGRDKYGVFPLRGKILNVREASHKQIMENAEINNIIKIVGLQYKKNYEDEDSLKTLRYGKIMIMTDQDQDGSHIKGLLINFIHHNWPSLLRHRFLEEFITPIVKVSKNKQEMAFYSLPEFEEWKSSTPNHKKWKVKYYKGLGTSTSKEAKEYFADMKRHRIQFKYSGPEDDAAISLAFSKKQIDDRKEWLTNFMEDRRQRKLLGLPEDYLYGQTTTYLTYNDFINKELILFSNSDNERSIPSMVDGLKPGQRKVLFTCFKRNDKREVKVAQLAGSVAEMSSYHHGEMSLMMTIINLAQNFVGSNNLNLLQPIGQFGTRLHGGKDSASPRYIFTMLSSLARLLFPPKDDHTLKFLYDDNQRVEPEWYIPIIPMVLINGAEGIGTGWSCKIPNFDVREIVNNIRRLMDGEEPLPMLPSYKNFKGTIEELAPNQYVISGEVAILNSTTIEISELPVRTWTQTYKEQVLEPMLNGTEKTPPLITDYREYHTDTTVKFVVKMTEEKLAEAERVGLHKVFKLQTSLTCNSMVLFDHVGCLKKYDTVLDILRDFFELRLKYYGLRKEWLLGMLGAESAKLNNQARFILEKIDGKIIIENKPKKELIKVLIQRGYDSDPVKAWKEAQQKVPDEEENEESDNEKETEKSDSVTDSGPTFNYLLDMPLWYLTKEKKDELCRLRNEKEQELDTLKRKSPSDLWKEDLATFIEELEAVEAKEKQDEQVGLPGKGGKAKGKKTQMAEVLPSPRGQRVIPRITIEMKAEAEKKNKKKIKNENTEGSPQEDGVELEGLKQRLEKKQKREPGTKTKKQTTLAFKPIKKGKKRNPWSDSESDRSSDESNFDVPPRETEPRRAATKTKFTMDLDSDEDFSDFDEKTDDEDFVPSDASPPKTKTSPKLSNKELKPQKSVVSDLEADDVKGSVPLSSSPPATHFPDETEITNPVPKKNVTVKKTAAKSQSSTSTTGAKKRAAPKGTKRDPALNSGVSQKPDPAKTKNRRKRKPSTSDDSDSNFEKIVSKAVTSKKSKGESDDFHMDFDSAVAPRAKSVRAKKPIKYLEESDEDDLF

With `COc1cc([C@@H]2c3cc4c(cc3[C@@H](O[C@@H]3O[C@@H]5CO[C@@H](C)O[C@H]5[C@H](O)[C@H]3O)[C@H]3COC(=O)[C@H]23)OCO4)cc(OC)c1O` [etoposide] the “cell-free DNA cleavage assay with pHOT1 plasmid (500 μM, induction of linear DNA)” value was “A linear DNA strand was observed upon treating the supercoiled pHOT1 plasmid DNA with etoposide, a standard topo II poison”.
